System: human chronic myelocytic leukemia-derived K562 cells
Assay: Cell growth inhibition test with K562 cells (WST-1)
Assay type: cell-based
Details: 72 hours, read-out: 50% growth inhibition concentration (GI50)
Experimental: In a 96-well plate (Nunc), human chronic myelocytic leukemia-derived K562 cells were sown in an amount of 1500 cells/well, and pre-incubated in 10% FCS-containing Rosewell Park Memorial Institute's Medium (RPMI) 1640 (Nissui) (incubation medium) in a 5% carbon dioxide incubator at 37° C. for 5 hours. Next, a DMSO solution of a test compound controlled at 10 mmol/L was stepwise diluted with the incubation medium, and added to each well in a total amount of 100 μL/well, and further incubated in the 5% carbon dioxide incubator at 37° C. for 72 hours. After the incubation, WST-1-labeled mixture (Rosh Diagnostic) diluted 2-fold with the incubation medium was added thereto in an amount of 20 μL/well, and incubated in the 5% carbon dioxide incubator at 37° C. for 2 hours. Using a microplate spectrophotometer (Biorad's Model 550), the absorbance at 450 nm and 655 nm of each well was measured. The cell growth inhibition activity of the test compound was indicated by the 50% growth inhibition concentration (GI50) thereof, like in Test Example 2.

## CCc1c(O)cc(O)c(-c2cccc(OCCN3CCCC3=O)c2)c1CCOCC(O)CO (centres unmarked) [Compound 196, 5-[2-(2,3-Dihydroxypropoxy)ethyl]-6-ethyl-4-{3-[2-(2-oxopyrrolidin-1-yl)ethoxy]phenyl}benzene-1,3-diol]
  GI50: ≤ 50 µM

## CCc1c(O)cc(O)c(-c2cccc(N)c2)c1CCOCC(O)CO (centres unmarked) [Compound 197, 4-(3-Aminophenyl)-5-[2-(2,3-dihydroxypropoxy)ethyl]-6-ethylbenzene-1,3-diol]
  GI50: ≤ 50 µM

## CCc1c(O)cc(O)c(-c2ccccc2)c1CC(O)(CCCO)CCCO [Compound 199, 6-Ethyl-5-[2,5-dihydroxy-2-(3-hydroxypropyl)pentyl]-4-phenylbenzene-1,3-diol]
  GI50: ≤ 50 µM

## CCc1c(O)cc(O)c(-c2ccccc2)c1Cc1ocnc1C(=O)OC [Compound 200, Methyl 5-[(2-ethyl-3,5-dihydroxy-6-phenylphenyl)methyl]-1,3-oxazole-4-carboxylate]
  GI50: ≤ 50 µM

## CCc1c(O)cc(O)c(-c2cccc(NS(C)(=O)=O)c2)c1CCOCC(O)CO (centres unmarked) [Compound 202, 6-Ethyl-5-[2-(2,3-dihydroxypropoxy)ethyl]-4-{3-[N-(methylsulfonyl)amino]phenyl}benzene-1,3-diol]
  GI50: ≤ 50 µM

## CCc1c(O)cc(O)c(-c2cccc(NS(=O)(=O)c3ccc(C)cc3)c2)c1CCOCC(O)CO (centres unmarked) [Compound 203, 5-[2-(2,3-Dihydroxypropoxy)ethyl]-6-ethyl-4-{3-[N-(4-tolylsulfonyl)amino]phenyl}benzene-1,3-diol]
  GI50: ≤ 50 µM

## CCc1c(O)cc(O)c(-c2cccc(NC(C)=O)c2)c1CCOCC(O)CO (centres unmarked) [Compound 204, 4-[3-(N-acetylamino)phenyl]-5-[2-(2,3-dihydroxypropoxy)ethyl]-6-ethylbenzene-1,3-diol]
  GI50: ≤ 50 µM

## CCc1c(O)cc(O)c(-c2cccc(NC(=O)c3ccccc3)c2)c1CCOCC(O)CO (centres unmarked) [Compound 205, 4-[3-(N-benzoylamino)phenyl]-5-[2-(2,3-dihydroxypropoxy)ethyl]-6-ethylbenzene-1,3-diol]
  GI50: ≤ 50 µM

## CCNC(=O)Nc1cccc(-c2c(O)cc(O)c(CC)c2CCOCC(O)CO)c1 (centres unmarked) [Compound 206, 5-[2-(2,3-Dihydroxypropoxy)ethyl]-6-ethyl-4-[3-(3-ethylureido)phenyl]benzene-1,3-diol]
  GI50: ≤ 50 µM

## CCc1c(O)cc(O)c(-c2cccc(NC(=O)C(C)(CO)CO)c2)c1CCOCC(O)CO (centres unmarked) [Compound 207, 5-[2-(2,3-Dihydroxypropoxy)ethyl]-6-ethyl-4-{3-[2-hydroxy-1-(hydroxymethyl)-1-methylethylcarbonylamino]phenyl}benzene-1,3-diol]
  GI50: ≤ 50 µM

## CCc1c(O)cc(O)c(-c2ccccc2)c1Cc1ocnc1CO [Compound 208, 6-Ethyl-5-{[4-(hydroxymethyl)-1,3-oxazol-5-yl]methyl}-4-phenylbenzene-1,3-diol]
  GI50: ≤ 50 µM

## CCc1c(O)cc(O)c(-c2ccccc2)c1CC1OCC(CO)O1 (centres unmarked) [Compound 211, 6-Ethyl-5-[(4-hydroxymethyl-1,3-dioxolan-2-yl)methyl]-4-phenylbenzene-1,3-diol]
  GI50: ≤ 50 µM

## CCc1c(O)cc(O)c(-c2ccccc2)c1CCC(N)=O [Compound 212, 3-(2-Ethyl-3,5-dihydroxy-6-phenylphenyl)propanamide]
  GI50: ≤ 50 µM

## CCc1c(O)cc(O)c(-c2ccccc2)c1CCC(C(=O)OC)C(=O)OC [Compound 213, Methyl 4-(2-ethyl-3,5-dihydroxy-6-phenylphenyl)-2-(methoxycarbonyl)butanoate]
  GI50: ≤ 50 µM

## CCc1c(O)cc(O)c(-c2ccccc2)c1C=CC(CO)CO [Compound 214, 6-ethyl-5-[4-hydroxy-3-(hydroxymethyl)but-1-en-1-yl]-4-phenylbenzene-1,3-diol]
  GI50: ≤ 50 µM

## CCc1c(O)cc(O)c(-c2ccccc2)c1CCC(CO)CO [Compound 215, 6-Ethyl-5-[4-hydroxy-3-(hydroxymethyl)butyl]-4-phenylbenzene-1,3-diol]
  GI50: ≤ 50 µM

## CCc1c(O)cc(O)c(-c2ccccc2)c1CCCC(CO)CO [Compound 217, 6-Ethyl-5-[5-hydroxy-4-(hydroxymethyl)pentyl]-4-phenylbenzene-1,3-diol]
  GI50: ≤ 50 µM

Reference: patent US7538241B2, “Hsp90 family protein inhibitors” (Kyowa Hakko Kogyo Co., Ltd., priority 2003, dated 2009)
